The source of these data is patent US11390591B2, “2,4,6-trisubstituted s-triazine compound, preparation method therefor, and use thereof” (Aluda Pharmaceuticals, Inc., priority 2016, dated 2022).

Read-outs that look alike come from different tables or passages of the source.

Common to all, as to assay type: cell-based
The test system of experiment [1] is cell lines of human brain glioma (U87). Put plainly: In vitro antineoplastic activity, MTT experiment, U87. How it is done:
(§1) MTT, RPM1640 culture medium, fetal bovine serum, 96-well plate, CO2 thermostatic incubator, American BIO-RAD680 microplate reader, cell lines of human non-small cell lung cancer (H522), and cell lines of human brain glioma (U87) were all obtained commercially.
(§2) (1) Cell inoculation: A single cell suspension was prepared with culture media supplemented with 10% fetal bovine serum, plated into a 96-well plate with 5000 cells per well, each well having a volume of 100 μL, and cultured overnight.
(§3) (2) Preparation of compound solutions: a DMSO stock solution of a compound was diluted on a sterile bench with a culture medium into 5 concentrations to be tested, wherein a double dilution was employed between two adjacent concentrations.
(§4) (3) The compound solutions of various concentrations were added into the 96-well plate cultured overnight, with 100 μL added per well, triplicated wells for each concentration. Since the peripheral wells can have edge effect and are susceptible to contamination, no cells or compounds were added thereto; instead, 100 μL culture solution was added as a blank. Additionally, 100% wells were set to contain the cells and 100 μL culture media without any compound. The plates were incubated in a thermostatic incubator at 37° C. for 48 hours.
(§5) (4) Staining: 10 μL MTT solution (5 mg/mL, prepared with PBS) was added into the 96-well plate for staining. After incubation for 4 hours, centrifugation was performed at 2500 rpm for 10 minutes. Then, a multiple pipette was used to suck the culture solution out of the wells carefully without sucking out the cells while the pipette tip faced downward. 150 μL DMSO was added and shaken on a shaker for 5-10 minutes. Crystals were allowed to dissolve fully, and an OD value for each well was measured using the microplate reader at 570 nm. The inhibition rate was calculated as follows: Inhibition rate (%)=(average OD value of 100% wells−average OD value of compound wells)/(average OD value of 100% wells−average OD value of blank wells)×100%

The subject of a further experiment is human glioma U87 cells. Put plainly: Tumor cell vacuolization (methuosis) scoring, U87. Set-up: key to Vacuolation Score: 5 scores were given when obvious vacuolization occurred at 10 nM; 4 scores at 31.6 nM; 3 scores at 100 nM; 2 scores at 316 nM; 1 score at 1000 nM; 0 score was given if no vacuolation occurred at any concentration. The note with it: U87 cells; for Vacuolation Score: 0.01-3.160 μM, 96 hours, microscope. How it is done: FIG. 2. Vacuolization of tumor cells. 100 microliter culture medium (RPMI1640, 2 mmol glutamine, 10% fetal bovine serum) containing 10^3 human colon adenocarcinoma cells (HCT15) or human brain glioma cells (U87) and a solvent DMSO control or 100 nM #40 compound (L16) was plated into a 96-well cell culture plate, and cell morphological image was taken under a phase contrast microscope after cultured at 5% CO2 and 37° C. for 96 hours.
Some cells gradually became round and eventually bursted. These changes are consistent with the features of cell death by methuosis (FIG. 2).
In order to compare the ability of different compounds to cause cell vacuolization, 100 μL culture media (RPMI1640, 2 mmol glutamine, 10% fetal bovine serum) comprising 10^3 human glioma U87 cells and final concentrations of 0.01, 0.0316, 0.1, 0.316, 1.0, 3.160 μM respectively of the compounds to be tested were inoculated into a 96-well culture plate. After cultured at 5% CO2 and 37° C. for 96 hours, cell morphology was observed under a high-magnification microscope, and the ability of the compounds to cause cell vacuolization was scored. 5 scores were given when obvious vacuolization occurred at 10 nM, 4 scores at 31.6 nM, 3 scores at 100 nM, 2 scores at 316 nM, 1 score at 1000 nM, and 0 score was given if no vacuolation occurred at any concentration.

The subject of experiment [2] is cell lines of human non-small cell lung cancer (H522). Put plainly: In vitro antineoplastic activity, MTT experiment, H522. The note with it: H522 cells, 48 hours, highest concentration tested 31.6 μM (>30: inhibition rate <50%). How it is done: as §1, §2, §3, §4, §5
The mark [3] stands for this setting: U87 cells, MTT, 48 hours, highest concentration tested 31.6 μM, read-out: IC50(μM) U87.
[4] abbreviates: ability to inhibit cell proliferation, U87 (FIG. 3), unit inferred, read-out: IC50.

As for `CN(C)CCCNC(=O)c1ccc(NC(=O)Nc2ccc(Nc3nc(/C=C/c4ccccc4)nc(N4CCOCC4)n3)cc2)cc1` [L34, (E)-N-(3-(dimethylamino)propyl)-4-(3-(4-(4-(morpholin-1-yl)-6-styrenyl-1,3,5-triazinyl-2-amino)phenyl)urea)benzamide], the IC50 in experiment [1] (setting [3]) was found to be 2.31 ± 0.29 µM; in experiment [1] (setting [4]), 3 µM; in experiment [2], 4.91 ± 0.1 µM. For the same compound, the “Vacuolation Score” value with human glioma U87 cells came out at 3.5.

On to `CN(C)CCNC(=O)c1ccc(NC(=O)Nc2ccc(Nc3nc(/C=C/c4ccccc4)nc(N4CCOCC4)n3)cc2)cc1` [L32, (E)-N-(2-(dimethylamino)ethyl)-4-(3-(4-(4-(morpholin-1-yl)-6-styrenyl-1,3,5-triazinyl-2-amino)phenyl)urea)benzamide], for which the figures for the IC50 in experiment [1] (setting [3]), in experiment [1] (setting [4]) and in experiment [2] were 2.48 ± 0.44 µM, 2.8 µM and 5.03 ± 0.4 µM, respectively. For the same compound, the “Vacuolation Score” value in the experiment on human glioma U87 cells is listed as 4.5.

In the case of `O=C(Nc1ccc(F)cc1)Nc1ccc(Nc2nc(/C=C/c3cccc([N+](=O)[O-])c3)nc(N3CCOCC3)n2)cc1` [L17, (E)-1-(4-fluorophenyl)-3-(4-(4-(morpholin-1-yl)-6-(3-nitrostyrenyl)-1,3,5-triazinyl-2-amino)phenyl)urea], the IC50 in experiment [1] (setting [3]) was 1.11 ± 0.1 µM; in experiment [1] (setting [4]), 1.19 µM; in experiment [2], over 30 µM. In the experiment with human glioma U87 cells, the “Vacuolation Score” value was 3.5.

As to `O=C(Nc1ccc(Cl)cc1)Nc1ccc(Nc2nc(/C=C/c3cccc([N+](=O)[O-])c3)nc(N3CC(O)C3)n2)cc1` [L22, (E)-1-(4-chlorophenyl)-3-(4-(4-(3-hydroxyazetidin-1-yl)-6-(3-nitrostyrenyl)-1,3,5-triazinyl-2-amino)phenyl)urea], the IC50 in experiment [1] (setting [3]) was 1.32 ± 0.22 µM; in experiment [1] (setting [4]) it was 1.33 µM; in experiment [2], 1.27 ± 0.08 µM. Further, the “Vacuolation Score” value in the experiment with human glioma U87 cells is given as 0.

Turning to `O=C(Nc1ccc(Cl)cc1)Nc1ccc(Nc2nc(/C=C/c3ccccc3)nc(N3CC(O)C3)n2)cc1` [L5, (E)-1-(4-chlorophenyl)-3-(4-(4-(3-hydroxyazetidin-1-yl)-6-styrenyl-1,3,5-triazinyl-2-amino)phenyl)urea], the IC50 in experiment [1] (setting [3]) amounted to 3.32 ± 0.45 µM; in experiment [1] (setting [4]), 3.28 µM; in experiment [2], 5.03 ± 0.89 µM. Moreover, in the experiment with human glioma U87 cells, the “Vacuolation Score” value amounted to 0.

As to `O=C(Nc1ccc(F)cc1)Nc1ccc(Nc2nc(/C=C/c3ccc(Cl)cc3)nc(N3CCOCC3)n2)cc1` [L11, (E)-1-(4-fluorophenyl)-3-(4-(4-(morpholin-1-yl)-6-(4-chlorostyrenyl)-1,3,5-triazinyl-2-amino)phenyl)urea], the IC50 in experiment [1] (setting [3]) was found to be 2.5 ± 0.08 µM; in experiment [1] (setting [4]) it was 2.5 µM; in experiment [2], 0.3 ± 0.03 µM. Moreover, the “Vacuolation Score” value with human glioma U87 cells is given as 2 (2 scores at 316 nM).

`CN1CCN(C(=O)c2ccc(NC(=O)Nc3ccc(Nc4nc(/C=C/c5ccccc5)nc(N5CCOCC5)n4)cc3)cc2)CC1` [L31, (E)-1-(4-((4-methylpiperazin-1-yl)formyl)phenyl)-3-(4-(4-(morpholin-1-yl)-6-styrenyl-1,3,5-triazinyl-2-amino)phenyl)urea]: the IC50 in experiment [1] (setting [3]) amounted to 0.23 ± 0.01 µM; in experiment [1] (setting [4]), 0.22 µM; in experiment [2], 1.05 ± 0.04 µM. Moreover, the “Vacuolation Score” value with human glioma U87 cells is recorded as 2.5.

With `CN1CCN(c2nc(/C=C/c3cccc([N+](=O)[O-])c3)nc(Nc3ccc(NC(=O)Nc4ccc(F)cc4)cc3)n2)CC1` [L19, (E)-1-(4-fluorophenyl)-3-(4-(4-(4-methylpiperazin-1-yl)-6-(3-nitrostyrenyl)-1,3,5-triazinyl-2-amino)phenyl)urea], the 50% inhibitory concentration (IC50) in experiment [1] (setting [3]) came out at 1.62 ± 0.09 µM; in experiment [1] (setting [4]) it was 1.8 µM; in experiment [2] it was 1.34 ± 0.22 µM. Further, in the experiment with human glioma U87 cells, the “Vacuolation Score” value was 0.

For `O=C(Nc1ccc(F)cc1)Nc1ccc(Nc2nc(/C=C/c3ccccc3)nc(N3CCOCC3)n2)cc1` [L2, (E)-1-(4-fluorophenyl)-3-(4-(4-(morpholin-1-yl)-6-styrenyl-1,3,5-triazinyl-2-amino)phenyl)urea], the IC50 in experiment [1] (setting [3]) came to 4.75 ± 0.87 µM; in experiment [1] (setting [4]) it was 4.74 µM; in experiment [2] it was 2.8 ± 0.21 µM. In the experiment on human glioma U87 cells, the “Vacuolation Score” value came to 4.5.

Take `O=C(Nc1ccc(Nc2nc(/C=C/c3ccc(Cl)cc3)nc(N3CCOCC3)n2)cc1)Nc1cccc(F)c1` [L12, (E)-1-(3-fluorophenyl)-3-(4-(4-(morpholin-1-yl)-6-(4-chlorostyrenyl)-1,3,5-triazinyl-2-amino)phenyl)urea]: the values for the IC50 in experiment [1] (setting [3]), in experiment [1] (setting [4]) and in experiment [2] were 4.41 ± 0.43 µM, 4.43 µM and 2.55 ± 0.12 µM, respectively. The “Vacuolation Score” value in the experiment on human glioma U87 cells is 2 (2 scores at 316 nM).

For `O=C(Nc1ccc(F)cc1)Nc1ccc(Nc2nc(/C=C/c3cccc(Cl)c3)nc(N3CCOCC3)n2)cc1` [L7, (E)-1-(4-fluorophenyl)-3-(4-(4-(morpholin-1-yl)-6-(3-chlorostyrenyl)-1,3,5-triazinyl-2-amino)phenyl)urea], the values for the IC50 in experiment [1] (setting [3]), in experiment [1] (setting [4]) and in experiment [2] were 1.33 ± 0.13 µM, 1.32 µM and 1.42 ± 0.12 µM, respectively. Moreover, in the experiment on human glioma U87 cells, the “Vacuolation Score” value was 4 (4 scores at 31.6 nM).

`O=C(Nc1ccc(Cl)cc1)Nc1ccc(Nc2nc(/C=C/c3ccccc3)nc(N3CCOCC3)n2)cc1` [L1, (E)-1-(4-chlorophenyl)-3-(4-(4-(morpholin-1-yl)-6-styrenyl-1,3,5-triazinyl-2-amino)phenyl)urea]: the figures for the IC50 in experiment [1] (setting [3]), in experiment [1] (setting [4]) and in experiment [2] were 4.79 ± 0.55 µM, 3.53 µM and 3.26 ± 0.34 µM, respectively. In the experiment on human glioma U87 cells, the “Vacuolation Score” value is recorded as 5 (5 scores were given when obvious vacuolization occurred at 10 nM). Also, in the experiment with human glioma U87 cells (among the compounds tested), the “ability to cause cell vacuolization (in words)” value is given as “strongest ability to cause cell vacuolization”.

`O=C(Nc1ccc(Cl)cc1)Nc1cccc(Nc2nc(/C=C/c3ccccc3)nc(N3CCOCC3)n2)c1` [L23, (E)-1-(4-chlorophenyl)-3-(3-(4-(morpholin-1-yl)-6-styrenyl-1,3,5-triazinyl-2-amino)phenyl)urea]: the IC50 in experiment [1] (setting [3]) came to 1 ± 0.06 µM; in experiment [1] (setting [4]), 1 µM; in experiment [2] it was 1.44 ± 0.1 µM. Also, the “Vacuolation Score” value in the experiment with human glioma U87 cells came out at 0.

In the case of `CN1CCN(c2nc(/C=C/c3ccc(Cl)cc3)nc(Nc3ccc(NC(=O)Nc4ccc(Cl)cc4)cc3)n2)CC1` [L13, (E)-1-(4-chlorophenyl)-3-(4-(4-(4-methylpiperazin-1-yl)-6-(4-chlorostyrenyl)-1,3,5-triazinyl-2-amino)phenyl)urea], the results for the IC50 in experiment [1] (setting [3]), in experiment [1] (setting [4]) and in experiment [2] were 2.04 ± 0.09 µM, 2.04 µM and 0.87 ± 0.08 µM, respectively. In the experiment with human glioma U87 cells, the “Vacuolation Score” value is recorded as 0.

As for `O=C(Nc1ccc(Cl)cc1)Nc1ccc(Nc2nc(/C=C/c3cccc([N+](=O)[O-])c3)nc(N3CCCC3)n2)cc1` [L21, (E)-1-(4-chlorophenyl)-3-(4-(4-(pyrrolidin-1-yl)-6-(3-nitrostyrenyl)-1,3,5-triazinyl-2-amino)phenyl)urea], the IC50 is 4.47 ± 0.39 µM in experiment [1] (setting [3]), 4.47 µM in experiment [1] (setting [4]) and 7.3 ± 0.75 µM in experiment [2]. Further, in the experiment on human glioma U87 cells, the “Vacuolation Score” value amounted to 0.

`CN1CCN(c2nc(/C=C/c3cccc(Cl)c3)nc(Nc3ccc(NC(=O)Nc4ccc(F)cc4)cc3)n2)CC1` [L9, (E)-1-(4-fluorophenyl)-3-(4-(4-(4-methylpiperazin-1-yl)-6-(3-chlorostyrenyl)-1,3,5-triazinyl-2-amino)phenyl)urea]: the IC50 in experiment [1] (setting [3]) came to 1.47 ± 0.12 µM; in experiment [1] (setting [4]), 1.47 µM; in experiment [2], 3.88 ± 0.65 µM. Moreover, the “Vacuolation Score” value in the experiment with human glioma U87 cells is listed as 2 (2 scores at 316 nM).

Regarding `CN1CCN(c2nc(/C=C/c3ccc(Cl)cc3)nc(Nc3ccc(NC(=O)Nc4cccc(F)c4)cc3)n2)CC1` [L15, (E)-1-(3-fluorophenyl)-3-(4-(4-(4-methylpiperazin-1-yl)-6-(4-chlorostyrenyl)-1,3,5-triazinyl-2-amino)phenyl)urea], the IC50 was 2.92 ± 0.21 µM in experiment [1] (setting [3]), 2.91 µM in experiment [1] (setting [4]) and 4.26 ± 0.1 µM in experiment [2]. For the same compound, the “Vacuolation Score” value with human glioma U87 cells is listed as 0.
